Test results: US9108920B2, “Diazeniumdiolate heterocyclic derivatives” (Merck Sharp & Dohme Corp., priority 2010, dated 2015)

System: Male beagle dogs
Assay: canine telemetry protocol, blood pressure reduction efficacy
Assay type: in vivo
Details: change from baseline, 3 mg/kg oral gavage; for ΔPP (mm Hg) 1-6 h / ΔPP (mm Hg) 6-12 h / ΔPP (mm Hg) 12-18 h: pulse pressure; for ΔSBP (mm Hg) 1-6 h / ΔSBP (mm Hg) 6-12 h / ΔSBP (mm Hg) 12-18 h: systolic blood pressure
Procedure: Compounds of the invention were evaluated for blood pressure reduction efficacy using the following canine telemetry protocol described below.
Male beagle dogs (approximately 1-3 years old) with a body weight of between 10 and 16 kg were surgically implanted with DSI radiotelemetry devices (model: TL11M2-D70-PCT). Briefly, under an inhalant anesthesia, isoflurane/oxygen mixture (1-3.5%/to effect), the body of the telemetry device was positioned and secured intra-abdominally. Subsequently, the arterial catheter of the telemetry device was passed subcutaneously to the inguinal area and introduced into the femoral artery and advanced to the level of the descending aorta. The catheter was secured with 2-0 silk ligatures. The muscle and underlying fascia was closed over the catheter using absorbable suture and the skin was closed using non-absorbable suture. The animals were allowed a minimum recovery period of 2 weeks between surgery and the evaluation of test compounds.
Compound evaluation consisted of a 3 day paradigm at a 3 mg/kg dose. On the first day, no compounds were administered during a 24 hour period of baseline data collection. Blood pressure and heart rate data were collected continuously for one minute periods at 10 minute intervals. On the days of compound administration half the animals received test article with the other half receiving the vehicle used for compound formulation. All test materials were administered by oral gavage in a volume of 1 mL/kg. Data are expressed either as raw values (mm Hg or beats per minute) or as the change from baseline (average value for about 12 hours in low activity period prior to dosing).

Compound | ΔPP (mm Hg) 1-6 h [mm Hg] | ΔPP (mm Hg) 6-12 h [mm Hg] | ΔPP (mm Hg) 12-18 h [mm Hg] | ΔSBP (mm Hg) 1-6 h [mm Hg] | ΔSBP (mm Hg) 6-12 h [mm Hg] | ΔSBP (mm Hg) 12-18 h [mm Hg]
CN(/[N+]([O-])=N/O[C@@H]1CCN(C(=O)OC(C)(C)C)C1)C(C)(C)C [Example 1, O^2-[(3R)-1-(tert-butoxycarbonyl)pyrrolidin-3-yl]1-(N-tert-butyl-N-methylamino)diazen-1-ium-1,2-diolate] | −16 | −17 | −15 | −16 | −15 | −11
CCN(/[N+]([O-])=N/OC1CCN(C(=O)OC(C)(C)C)CC1)C(C)(C)C [Example 6, O^2-[1-(tert-butoxycarbonyl)piperidin-4-yl]1-(N-tert-butyl-N-ethylamino)diazen-1-ium-1,2-diolate] | −19 | −17 | −15 | −25 | −16 | −9
CN(/[N+]([O-])=N/O[C@@H]1CCN(Cc2ccccc2)C1)C(C)(C)C [Example 28, O^2-[(3R)-1-benzylpyrrolidin-3-yl]1-(N-tert-butyl-N-methylamino)diazen-1-ium-1,2-diolate] | −12 | −10 | −5 | −21 | −14 | −7
CCN(/[N+]([O-])=N/O[C@@H]1CCN(CC(F)(F)F)C1)C(C)(C)C [Example 32, O^2-[(3R)-1-(2,2,2-trifluoroethyl)pyrrolidin-3-yl]-1-(N-tert-butyl-N-ethylamino)diazen-1-ium-1,2-diolate] | −23 | −15 | −10 | −32 | −16 | −5
CCN(/[N+]([O-])=N/OC1CCN(c2ccc(C#N)cn2)CC1)C(C)(C)C [Example 48, O^2-[1-(5-cyanopyridin-2-yl)piperidin-4-yl]1-(N-tert-butyl-N-ethylamino)diazen-1-ium-1,2-diolate] | −17 | −16 | −15 | −16 | −12 | −11
CCN(/[N+]([O-])=N/O[C@@H]1CCN(C(=O)NC(C)(C)C)C1)C(C)(C)C [Example 59, O^2-[(3R)-1-(tert-butylcarbamoyl)pyrrolidin-3-yl]1-(N-tert-butyl-N-ethylamino)diazen-1-ium-1,2-diolate] | −17 | −16 | −15 | −19 | −18 | −17
O^2-[(3R)-1-(3-methoxyphenyl)-2-oxopyrrolidin-3-yl]1-(N-tert-butyl-N-methylamino)diazen-1-ium-1,2-diolate [Example 64] | −12 | −15 | −13 | −13 | −12 | −11
